The values that follow come from patent US6630075B2, “Use of fluorinated ketones in fire extinguishing compositions” (3M Innovative Properties Company, priority 1999, dated 2003).

Where only a bound is given, the exact number is not on record here.

The nature of series [1]: manual suppression full-scale streaming test, UL Standard 711 pan fires. The conditions noted are these: heptane, 60 sec pre-burn. From the text: These two examples were run to illustrate the fire performance of a fluorinated ketone of this invention, CF3CF2C(O)CF(CF3)2 (the fluorinated ketone as prepared in Example 1), using a manual suppression full-scale streaming test for a clean extinguishing agent.
For each example, a standard off-the-shelf Amerex 131b HALON™ 1211 handheld extinguisher was used to introduce the extinguishing composition to the fire. The extinguisher was equipped with a standard ½ in (1.3 cm) nominal diameter rubber hose with a clean extinguishing agent nozzle attached to the end. In each case, the composition was super-pressurized using dry nitrogen at 130-150 psi (900-1040 kPa).
Both fire extinguishing tests were run following essentially the same test procedures and conditions as outlined in UL Standard 711 for the 2B and 5B pan fire scenarios, as normally conducted for UL approval at Underwriters Laboratories, Inc., Northbrook, Ill. The only deviation from that test procedure was that the fire tests for these examples were conducted outside. The fire test pans for the respective fires were sized to be 2.5 times larger than the ultimate extinguisher rating. For example, a 2B UL-rated extinguisher rating requires a skilled firefighter to be able to extinguish a 5 ft^2 (0.46 m^2) fire, a 5B UL-rated extinguisher rating requires extinguishing a 12.5 ft^2(1.16 m^2) fire, etc. For both examples, the UL specified pans were 12 in (30 cm) deep, into which was introduced 4.0 in (10 cm) of water, onto which was introduced 2 in (5 cm) of commercial grade heptane for fuel, leaving a 6 in (15 cm) freeboard above the fuel surface. Each fire was allowed to pre-burn 60 seconds before extinguishing commenced, using an agent flow rate of 0.75-0.80 kg/sec. The discharge time for the extinguishing of the fire was recorded as was the amount of agent discharged.

Series [2] is described as follows: Micro-Cup Burner Test (extinguishing concentration; Mass Ratio Calculation vs HALON 1211). From the text:
The Micro-Cup Burner Test is a laboratory test which measures the extinguishing ability of an agent based on the quantity of agent required to extinguish a fire under the following test conditions. The Micro-Cup Burner Test utilizes a quartz concentric-tube laminar-diffusion flame burner (micro-cup burner, of similar design to the above-described cup apparatus) aligned vertically with all flows upward. A fuel, typically propane unless otherwise specified, flows at 10.0 sccm (standard cubic centimeters per minute) through a 5-mm I.D. inner quartz tube which is centered in a 15-mm I.D. quartz chimney. The chimney extends 4.5 cm above the inner tube. Air flows through the annular region between the inner tube and the chimney at 1000 sccm. Prior to the addition of extinguishing composition, a visually stable flame is supported on top of the inner tube, and the resulting combustion products flow out through the chimney. An extinguishing composition to be evaluated is introduced into the air stream upstream of the burner. Liquid compositions are introduced by a syringe pump (which is calibrated to within 1%) and are volatilized in a heated trap. Gaseous compositions are introduced via a mass-flow controller to the air stream upstream from the burner. For consistency, the air-gaseous composition mixture then flows through the heated trap prior to its introduction to the flame burner. All gas flows are maintained by electronic mass-flow controllers which are calibrated to within 2%. The fuel is ignited to produce a flame and is allowed to burn for 90 seconds. After 90 seconds, a specific flow rate of composition is introduced, and the time required for the flame to be extinguished is recorded. The reported extinguishing concentrations are the recorded volume % of extinguishing composition in air required to extinguish the flame within an average time of 30 seconds or less.
The above-mentioned cup burner test measures the performance of an extinguishing composition by determining the minimum volume percent of composition in air required to extinguish a test fire. However, it is often desirable to directly compare the fire performance of an experimental extinguishing composition (e.g., a fluorinated ketone) against the performance of a state-of-the-art extinguishing composition, such as HALON™ 1211 fire extinguishing agent (CF2ClBr, a bromochlorofluorocarbon). One way to make such a comparison is to derive the mass ratio of experimental composition to HALON™ 1211 fire extinguishing agent from the volume percentages of each composition required for extinguishing. The mass ratio can be calculated by dividing the experimental composition's extinguishing volume percent by the HALON™ 1211 agent's extinguishing volume percent and multiplying the resulting quotient (which, according to the ideal gas law, also represents the ratio of mole percents) times the weight average molecular weight of the experimental composition divided by the molecular weight of HALON™ 1211 agent (165 g/mole).
In Comparative Example C1, the extinguishing concentration (volume % in air) of HALON™ 1211 fire extinguishing agent was determined as using the Micro-Cup Burner Test.
In Examples 1-16, the extinguishing concentration of several perfluorinated ketones was also determined using the Micro-Cup Burner Test. The mass ratio as compared to HALON™ 1211 fire extinguishing agent was then calculated using the Mass Ratio Calculation.
In Comparative Examples C2-C11, various fluorinated extinguishing compositions known in the art (hydrofluorocarbons, perfluorocarbons, hydrochlorofluorocarbons, hydrofluoroethers, and iodofluorocarbons) were evaluated for their extinguishing concentration, and subsequently their mass ratios were calculated with respect to HALON™ 1211 agent. […]

The nature of series [3]: total flooding evaluation in 1.28 m^3 enclosure (Ohmic Heating Test procedure). The settings on record: 1000 g agent, nitrogen 50 psi. From the text:
This example was run to evaluate the fire performance of a fluorinated ketone of this invention, CF3CF2C(O)CF(CF3)2 (the fluorinated ketone as prepared in Example 1), in a total flooding evaluation for a clean extinguishing agent.
For this evaluation, a 1.28 m^3 (0.915 m×0.915 m×1.525 m) steel reinforced polycarbonate “box” enclosure was used, into which a fixed piping system, normally designed to deliver a gaseous clean extinguishing agent, was filled instead with a composition that is liquid at room temperature and discharged into the “box” to extinguish a fire. Using this modified system and procedure, the liquid fluorinated ketone used, CF3CF2C(O)CF(CF3)2, could be discharged into the enclosure indirectly in the same manner as could a gaseous clean extinguishing agent and thus allow the liquid agent to extinguish an obstructed fire located remotely in the enclosure.
In this modified procedure, a Swagelok Whitey 2000 mL cylinder was filled with 1000 g of CF3CF2C(O)CF(CF3)2 and was super-pressurized with nitrogen to 50 psi (345 kPa). Attached to the bottom of the cylinder was a 0.25 in (0.6 cm) Swagelok Whitey SS1RFA-A stainless steel angle valve, to which was fixed 34 in (86.4 cm) of nominal 0.25 in (6.5 mm) piping arrangement, including a 0.25 in (6.5 mm) Jamesbury Clincher ¼-turn ball valve. The piping was connected to a Bete NF 0500 square edge orifice nozzle. […]

The next series deals with mice. Kind of series: short term inhalation tests with mice. It is filed as in vivo. The conditions noted are these: mice exposed for four hours at 50,000 ppm in air.

On to `O=C(C(F)(F)C(F)(F)F)C(F)(C(F)(F)F)C(F)(F)F` [Example 1, 1,1,1,2,4,4,5,5,5-nonafluoro-2-trifluoromethyl-butan-3-one], for which, in series [1] (UL 2B pan), the “Agent Discharged” value came to 2.59 kg and the “Discharge Time” value came out at 3.5 s. In addition, in series [1] (UL 5B pan), the “Agent Discharged” value is given as 2.87 kg and the “Discharge Time” value came out at 3.8 s. In series [2] (calculated from extinguishing volume % and molecular weight relative to HALON 1211 (165 g/mole)), the “Mass Ratio to HALON™ 1211” value is recorded as 1.86. Besides, in series [2] (volume % in air required to extinguish the flame within an average time of 30 seconds or less, propane fuel), the “Ext. Conc. (vol %)” value is listed as 3.5 vol %. Besides, in series [3], the “time to extinguishing of the obstructed fire from the beginning of agent discharge” value is no more than 35 s. In the series with mice, the acute toxicity entry is recorded as “low acute toxicity”.
